Data published in the supplement of paper PMC10307832.

Key:
Assay in all cases: relative viability (nuclei count vs DMSO), 5 days (fraction); higher = more cells survive
[1] = compound: C1COCCN1CC2=CC(=O)C(=CO2)OCCCCCSC3=C4C=CC(=CC4=NC=C3)C(F)(F)F [EHT 1864] + CC1(C)CCC(c2ccc(Cl)cc2)=C(CN2CCN(c3ccc(C(=O)NS(=O)(=O)c4ccc(N[C@H](CCN5CCOCC5)CSc5ccccc5)c(S(=O)(=O)C(F)(F)F)c4)cc3)CC2)C1 [Navitoclax] (partner 0.5 µM)
How it was run: (§1)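 Each reported value is a median over duplicate plates. It expresses relative viability: treated-well nuclei count divided by vehicle-well nuclei count. Lung cancer cell lines in 1536-well plates were dosed by pin tool a day after seeding, alone with one drug or with a fixed anchor-drug dose plus five library-drug doses (not always all listed) in √10 steps, and nuclei were counted after 5 days.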

[2] = compound: C1COCCN1CC2=CC(=O)C(=CO2)OCCCCCSC3=C4C=CC(=CC4=NC=C3)C(F)(F)F [EHT 1864] + C[C@]1(O)C[C@@H](c2nc(-c3ccc4ccc(-c5ccccc5)nc4c3)c3c(N)nccn32)C1 [Linsitinib] (partner 1 µM)
How it was run: as §1

[3] = compound: C1COCCN1CC2=CC(=O)C(=CO2)OCCCCCSC3=C4C=CC(=CC4=NC=C3)C(F)(F)F [EHT 1864] + Cc1nc(NC(=O)N2CCC[C@H]2C(N)=O)sc1-c1ccnc(C(C)(C)C(F)(F)F)c1 [Alpelisib] (partner 2 µM)
How it was run: as §1

[4] = compound: C1COCCN1CC2=CC(=O)C(=CO2)OCCCCCSC3=C4C=CC(=CC4=NC=C3)C(F)(F)F [EHT 1864] + O=C(CCCCCCC(=O)Nc1ccccc1)NO [Vorinostat] (partner 1 µM)
How it was run: as §1

Row | Cell Line | relative viability ([1]; first compound 0.04 µM) | relative viability ([1]; first compound 0.1265 µM) | relative viability ([1]; first compound 0.4 µM) | relative viability ([1]; first compound 1.265 µM) | relative viability ([1]; first compound 4 µM) | relative viability ([2]; first compound 0.04 µM) | relative viability ([2]; first compound 0.1265 µM) | relative viability ([2]; first compound 0.4 µM) | relative viability ([2]; first compound 1.265 µM) | relative viability ([2]; first compound 4 µM) | relative viability ([3]; first compound 0.04 µM) | relative viability ([3]; first compound 0.1265 µM) | relative viability ([3]; first compound 0.4 µM) | relative viability ([3]; first compound 1.265 µM) | relative viability ([3]; first compound 4 µM) | relative viability ([4]; first compound 0.04 µM) | relative viability ([4]; first compound 0.1265 µM) | relative viability ([4]; first compound 0.4 µM) | relative viability ([4]; first compound 1.265 µM) | relative viability ([4]; first compound 4 µM)
1 | NCI-H1437 | 1.06 | 1.03 | 0.967 | 0.819 | 0.671 | 0.905 | 0.917 | 0.974 | 0.776 | 0.655 | 0.988 | 1.04 | 0.899 | 0.805 | 0.652 | 0.84 | 0.866 | 0.757 | 0.542 | 0.479
2 | NCI-H2085 | 1.03 | 1.11 | 1.08 | 1.13 | 1.14 | 0.87 | 0.816 | 0.883 | 0.91 | 0.787 | 0.998 | 0.875 | 0.9 | 0.982 | 0.869 | 0.789 | 0.577 | 0.838 | 0.774 | 0.804
3 | IA-LM | 0.697 | 0.653 | 0.775 | 0.803 | 0.569 | 0.524 | 0.325 | 0.572 | 0.463 | 0.644 | 0.875 | 0.419 | 0.799 | 0.677 | 0.639 | 0.917 |  | 0.853 | 0.946 | 1.24
4 | H3255 | 0.561 | 0.506 | 0.457 | 0.441 | 0.448 | 0.934 | 0.848 | 1.04 | 1 | 0.898 | 0.652 | 0.516 | 0.675 | 0.718 | 0.711 | 0.752 | 0.717 |  | 0.851 | 0.794
5 | LOU-NH91 | 0.693 | 0.652 | 0.789 | 0.694 | 0.567 | 0.975 | 0.875 | 1.06 | 1.1 | 0.767 | 0.739 | 0.7 | 0.793 | 0.736 | 0.624 | 0.924 | 0.799 | 1.02 | 0.876 | 0.856
6 | NCI-H3122 | 1.06 | 1.01 | 0.987 | 1.06 | 0.987 | 1.03 | 0.977 | 0.932 | 1.02 | 0.965 | 0.869 | 0.751 | 0.774 | 0.732 | 0.766 | 0.934 | 0.76 | 0.899 | 1.12 | 0.992
7 | PC-3 [JPC-3] | 0.788 | 0.72 | 0.849 | 0.844 | 0.805 | 0.982 | 0.938 | 0.942 | 0.949 | 0.952 | 1.04 | 0.944 | 1.01 | 0.957 | 0.987 | 0.886 | 0.718 | 0.83 | 0.77 | 0.801
8 | NCI-H1651 | 1.03 | 0.947 | 1.1 | 1 | 0.91 | 1.07 | 0.885 | 0.992 | 0.931 | 0.996 | 0.917 | 0.876 | 0.949 | 0.967 | 0.878 | 0.55 | 0.541 | 0.554 | 0.561 | 0.599
9 | NCI-H2087 | 0.86 | 0.894 | 0.865 | 0.829 | 0.743 | 0.88 | 0.865 | 0.796 | 0.729 | 0.68 | 0.929 | 1 | 0.902 | 1.1 | 0.802 | 0.436 |  | 0.798 | 0.727 | 0.572
